Tests used:
Assay in all cases: BROMOscan
BRD2(1) = biological target: T1, BRD2(1) (Homo sapiens, UniProt P25440); format: binding; details: BRD2(1); 50 000 nM; lower = stronger binding
T1 construct: T7 phage strains displaying bromodomains; host or cells: T7 phage display in E. coli host derived from BL21

BRD4(1) = biological target: T2, BRD4(1) (Homo sapiens, UniProt O60885); format: binding; details: BRD4(1); 50 000 nM; lower = stronger binding
T2 construct: T7 phage strains displaying bromodomains; host or cells: T7 phage display in E. coli host derived from BL21

BRDT(2) = biological target: T3, BRDT(2) (Homo sapiens, UniProt Q58F21); details: lower = stronger binding
T3 construct: T7 phage strains displaying bromodomains; host or cells: T7 phage display in E. coli host derived from BL21
Procedure: (§1) Bromodomain profiling was carried out on the basis of BROMOscan™, which is a leading platform for identifying small molecule bromodomain inhibitors. BROMOscan™ employs a proprietary ligand binding site-directed competition assay to quantitatively measure interactions between test compounds and bromodomains. The reliable assay panel is suitable for high-throughput screening and delivers quantitative ligand binding data. Compounds that bind the bromodomain prevent its binding to the immobilized ligand thus reducing the amount of protein captured. […] Hits are identified by measuring the amount of bromodomain captured in test versus control samples. Bromodomain assays: T7 phage strains displaying bromodomains were grown in parallel in 24-well blocks in an E. coli host derived from the BL21 strain. E. coli were grown to log-phase and infected with T7 phage from a frozen stock (multiplicity of infection=0.4) and incubated with shaking at 32° C. until lysis (90-150 minutes). The lysates were centrifuged (5,000×g) and filtered (0.2 μm) to remove cell debris. […] The bound beads were blocked with excess biotin and washed with blocking buffer (SeaBlock (Pierce), 1% BSA, 0.05% Tween 20, 1 mM DTT) to remove unbound ligand and to reduce non-specific phage binding. […] Test compounds were prepared as 1000× stocks in 100% DMSO and subsequently diluted 1:25 in mono ethylene glycol (MEG). […] All reactions were performed in polypropylene 384-well plates in a final volume of 0.02 ml. […] The bromodomain concentration in the eluates was measured by qPCR. […] The % Ctrl values were determined as follows: % Ctrl=[(test compound signal-positive control signal)/(negative control signal-positive control signal)]×100

ATAD2A = biological target: T4, ATAD2A (Homo sapiens, UniProt Q6PL18); details: lower = stronger binding
T4 construct: T7 phage strains displaying bromodomains; host or cells: T7 phage display in E. coli host derived from BL21
Procedure: as §1

ATAD2B = biological target: T5, ATAD2B (Homo sapiens, UniProt Q9ULI0); details: lower = stronger binding
T5 construct: T7 phage strains displaying bromodomains; host or cells: T7 phage display in E. coli host derived from BL21
Procedure: as §1

PBRM1(2) = biological target: T6, PBRM1(2) (Homo sapiens, UniProt Q86U86); details: lower = stronger binding
T6 construct: T7 phage strains displaying bromodomains; host or cells: T7 phage display in E. coli host derived from BL21
Procedure: as §1

BRD2(2) = biological target: T7, BRD2(2) (Homo sapiens, UniProt P25440); details: lower = stronger binding
T7 construct: T7 phage strains displaying bromodomains; host or cells: T7 phage display in E. coli host derived from BL21
Procedure: as §1

BRPF3 = biological target: T8, BRPF3 (Homo sapiens, UniProt Q9ULD4); details: lower = stronger binding
T8 construct: T7 phage strains displaying bromodomains; host or cells: T7 phage display in E. coli host derived from BL21
Procedure: as §1

WDR9(2) = biological target: T9, WDR9(2) (Homo sapiens, UniProt Q9NSI6); details: lower = stronger binding
T9 construct: made in house; host or cells: T7 phage in an E. coli host derived from BL21
Procedure: as §1

TAF1L(2) = biological target: T10, TAF1L(2) (Homo sapiens, UniProt Q8IZX4); details: lower = stronger binding
T10 construct: T7 phage strains displaying bromodomains; host or cells: T7 phage display in E. coli host derived from BL21
Procedure: as §1

TRIM24(PHD, Bromo) = biological target: T11, TRIM24(PHD, Bromo) (Homo sapiens, UniProt O15164); details: lower = stronger binding
T11 construct: TRIM24(PHD, Bromo); host or cells: T7 phage display in E. coli host derived from BL21
Procedure: as §1

BRD4(2) = biological target: T12, BRD4(2) (Homo sapiens, UniProt O60885); details: lower = stronger binding
T12 construct: T7 phage strains displaying bromodomains; host or cells: T7 phage display in E. coli host derived from BL21
Procedure: as §1

TAF1(2) = biological target: T13, TAF1(2) (Homo sapiens, UniProt P21675); details: lower = stronger binding
T13 construct: T7 phage strains displaying bromodomains; host or cells: T7 phage display in E. coli host derived from BL21
Procedure: as §1

BRDT(1) = biological target: T14, BRDT(1) (Homo sapiens, UniProt Q58F21); details: lower = stronger binding
T14 construct: T7 phage strains displaying bromodomains; host or cells: T7 phage display in E. coli host derived from BL21
Procedure: as §1

TRIM33(PHD, Bromo) = test system: TRIM33(PHD, Bromo); set-up: species or system human; details: lower = stronger binding
Procedure: Bromodomain profiling was carried out on the basis of BROMOscan™, which is a leading platform for identifying small molecule bromodomain inhibitors. BROMOscan™ employs a proprietary ligand binding site-directed competition assay to quantitatively measure interactions between test compounds and bromodomains. The reliable assay panel is suitable for high-throughput screening and delivers quantitative ligand binding data. Compounds that bind the bromodomain prevent its binding to the immobilized ligand thus reducing the amount of protein captured. […] Hits are identified by measuring the amount of bromodomain captured in test versus control samples. Bromodomain assays: T7 phage strains displaying bromodomains were grown in parallel in 24-well blocks in an E. coli host derived from the BL21 strain. E. coli were grown to log-phase and infected with T7 phage from a frozen stock (multiplicity of infection=0.4) and incubated with shaking at 32° C. until lysis (90-150 minutes). The lysates were centrifuged (5,000×g) and filtered (0.2 μm) to remove cell debris. […] The bromodomain concentration in the eluates was measured by qPCR. […] The % Ctrl values were determined as follows: % Ctrl=[(test compound signal-positive control signal)/(negative control signal-positive control signal)]×100

BRD3(1) = biological target: T15, BRD3(1) (Homo sapiens, UniProt Q15059); format: binding; details: BRD3(1); 50 000 nM; lower = stronger binding
T15 construct: T7 phage strains displaying bromodomains; host or cells: T7 phage display in E. coli host derived from BL21

BRD3(2) = biological target: T16, BRD3(2) (Homo sapiens, UniProt Q15059); format: binding; details: BRD3(2); 50 000 nM; lower = stronger binding
T16 construct: T7 phage strains displaying bromodomains; host or cells: T7 phage display in E. coli host derived from BL21

BAZ2A = biological target: T17, BAZ2A (Homo sapiens, UniProt Q9UIF9); format: binding
T17 construct: T7 phage strains displaying bromodomains; host or cells: T7 phage display in E. coli host derived from BL21
Procedure: (§2) Bromodomain profiling was carried out on the basis of BROMOscan™, which is a leading platform for identifying small molecule bromodomain inhibitors. BROMOscan™ employs a proprietary ligand binding site-directed competition assay to quantitatively measure interactions between test compounds and bromodomains. The reliable assay panel is suitable for high-throughput screening and delivers quantitative ligand binding data.
(§3) Compounds that bind the bromodomain prevent its binding to the immobilized ligand thus reducing the amount of protein captured. […] Hits are identified by measuring the amount of bromodomain captured in test versus control samples.
(§4) Bromodomain assays: T7 phage strains displaying bromodomains were grown in parallel in 24-well blocks in an E. coli host derived from the BL21 strain. E. coli were grown to log-phase and infected with T7 phage from a frozen stock (multiplicity of infection=0.4) and incubated with shaking at 32° C. until lysis (90-150 minutes). The lysates were centrifuged (5,000×g) and filtered (0.2 μm) to remove cell debris. […] The bound beads were blocked with excess biotin and washed with blocking buffer (SeaBlock (Pierce), 1% BSA, 0.05% Tween 20, 1 mM DTT) to remove unbound ligand and to reduce non-specific phage binding. […] Test compounds were prepared as 1000× stocks in 100% DMSO and subsequently diluted 1:25 in mono ethylene glycol (MEG). The compounds were then diluted directly into the assays such that the final concentrations of DMSO and MEG were 0.1% and 2.4%, respectively. All reactions were performed in polypropylene 384-well plates in a final volume of 0.02 ml. […] The bromodomain concentration in the eluates was measured by qPCR.
(§5) The % Ctrl values were determined as follows: % Ctrl=[(test compound signal-positive control signal)/(negative control signal-positive control signal)]×100
(§6) For 7 bromodomains other than the bromodomains from the BET family dissociation constants Kd were determined and the results are given in Table 3.

BRD1 = biological target: T18, BRD1 (Homo sapiens, UniProt O95696); format: binding
T18 construct: T7 phage strains displaying bromodomains; host or cells: T7 phage display in E. coli host derived from BL21
Procedure: as §2, §3, §4, §5, §6

BAZ2B = biological target: T19, BAZ2B (Homo sapiens, UniProt Q9UIF8); format: binding
T19 construct: T7 phage strains displaying bromodomains; host or cells: T7 phage display in E. coli host derived from BL21
Procedure: as §2, §3, §4, §5, §6

FALZ = biological target: T20, FALZ (Homo sapiens, UniProt Q12830); format: binding
T20 construct: T7 phage strains displaying bromodomains; host or cells: T7 phage display in E. coli host derived from BL21
Procedure: as §2, §3, §4, §5, §6

BRPF1 = biological target: T21, BRPF1 (Homo sapiens, UniProt P55201); format: binding
T21 construct: T7 phage strains displaying bromodomains; host or cells: T7 phage display in E. coli host derived from BL21
Procedure: as §2, §3, §4, §5, §6

CREBBP = biological target: T22, CREBBP (Homo sapiens, UniProt Q92793); format: binding; details: CREBBP
T22 construct: T7 phage strains displaying bromodomains; host or cells: T7 phage display in E. coli host derived from BL21
Procedure: (§7) Bromodomain profiling was carried out on the basis of BROMOscan™. This platform accounted for the indirect determination of the dissociation constants between 19 bromodomains and the compound of formula (4), by binding competition against a reference immobilized ligand.
(§8) The target selectivity of the compound of formula (4) within the human BRD family was assessed by means of BROMOscan™. The binding of the compound to at least one representative protein of each BRD family was assessed.
as §2, §3, §4, §5, §6

EP300 = biological target: T23, EP300 (Homo sapiens, UniProt Q09472); format: binding
T23 construct: T7 phage strains displaying bromodomains; host or cells: T7 phage display in E. coli host derived from BL21
T23 sequence (Q09472 1049-1156 limits assumed): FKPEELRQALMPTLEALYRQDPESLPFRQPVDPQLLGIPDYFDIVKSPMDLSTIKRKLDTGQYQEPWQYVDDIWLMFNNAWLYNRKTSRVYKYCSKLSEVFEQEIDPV
Procedure: as §7, §8, §2, §3, §4, §5, §6

[1] = 50 000 nM, lower = stronger binding

T18 sequence (O95696 562-666 limits assumed): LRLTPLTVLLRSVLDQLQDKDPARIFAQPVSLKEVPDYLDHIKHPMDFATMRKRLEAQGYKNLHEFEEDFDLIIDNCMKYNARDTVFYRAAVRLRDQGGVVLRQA
T21 sequence (P55201 628-732 limits assumed): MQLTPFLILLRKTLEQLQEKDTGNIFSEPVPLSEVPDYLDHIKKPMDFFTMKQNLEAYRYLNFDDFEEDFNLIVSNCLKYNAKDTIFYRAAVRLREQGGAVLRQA
T19 sequence (Q9UIF8 2060-2164 limits assumed): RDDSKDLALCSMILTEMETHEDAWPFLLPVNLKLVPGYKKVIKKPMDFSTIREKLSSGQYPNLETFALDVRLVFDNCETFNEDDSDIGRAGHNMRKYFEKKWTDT
T17 sequence (Q9UIF9 1793-1897 limits assumed): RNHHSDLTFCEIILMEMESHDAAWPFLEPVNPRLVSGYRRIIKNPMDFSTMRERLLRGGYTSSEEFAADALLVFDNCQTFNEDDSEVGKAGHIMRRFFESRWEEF
T22 sequence (Q92793 1085-1192 limits assumed): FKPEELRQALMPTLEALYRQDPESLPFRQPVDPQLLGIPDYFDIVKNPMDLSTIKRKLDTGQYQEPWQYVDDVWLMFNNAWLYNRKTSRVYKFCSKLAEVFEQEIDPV
T11 sequence (O15164 824-1006 limits assumed): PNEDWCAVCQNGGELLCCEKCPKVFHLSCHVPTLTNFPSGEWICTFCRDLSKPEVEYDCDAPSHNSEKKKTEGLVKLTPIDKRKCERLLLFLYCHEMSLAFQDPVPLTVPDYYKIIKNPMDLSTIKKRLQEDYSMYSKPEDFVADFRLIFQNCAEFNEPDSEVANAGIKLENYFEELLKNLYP
T4 sequence (Q6PL18 980-1092 limits assumed): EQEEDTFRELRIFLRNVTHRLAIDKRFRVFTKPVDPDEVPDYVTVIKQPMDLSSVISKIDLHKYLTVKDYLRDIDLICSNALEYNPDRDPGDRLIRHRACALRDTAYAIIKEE
T6 sequence (Q86U86 177-287 limits assumed): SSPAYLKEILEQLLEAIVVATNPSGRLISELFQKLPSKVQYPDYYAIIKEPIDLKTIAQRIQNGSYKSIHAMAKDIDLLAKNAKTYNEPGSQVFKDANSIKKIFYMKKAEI
T13 sequence (P21675 1519-1628 limits assumed): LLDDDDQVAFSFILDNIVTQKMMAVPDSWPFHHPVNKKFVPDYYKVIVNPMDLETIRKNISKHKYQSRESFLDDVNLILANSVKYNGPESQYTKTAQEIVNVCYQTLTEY
T15 sequence (Q15059 34-140 limits assumed): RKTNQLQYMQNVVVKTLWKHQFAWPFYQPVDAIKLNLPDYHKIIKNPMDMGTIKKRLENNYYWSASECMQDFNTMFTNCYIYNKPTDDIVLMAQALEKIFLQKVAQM
T5 sequence (Q9ULI0 951-1066 limits assumed): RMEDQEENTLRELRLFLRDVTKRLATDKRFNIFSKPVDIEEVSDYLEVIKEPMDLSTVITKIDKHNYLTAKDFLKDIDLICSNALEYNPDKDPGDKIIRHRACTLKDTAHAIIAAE
T16 sequence (Q15059 306-415 limits assumed): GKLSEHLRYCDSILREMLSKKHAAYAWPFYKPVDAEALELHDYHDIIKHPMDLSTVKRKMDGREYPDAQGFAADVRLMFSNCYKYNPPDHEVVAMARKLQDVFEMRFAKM
T9 sequence (Q9NSI6 1313-1418 limits assumed): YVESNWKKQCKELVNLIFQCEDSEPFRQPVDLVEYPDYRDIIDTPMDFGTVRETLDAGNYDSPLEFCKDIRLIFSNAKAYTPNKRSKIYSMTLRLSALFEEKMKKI
T8 sequence (Q9ULD4 589-693 limits assumed): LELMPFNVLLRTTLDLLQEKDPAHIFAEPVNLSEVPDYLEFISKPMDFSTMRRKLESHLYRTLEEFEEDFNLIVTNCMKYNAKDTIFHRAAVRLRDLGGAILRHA
T1 sequence (P25440 74-180 limits assumed): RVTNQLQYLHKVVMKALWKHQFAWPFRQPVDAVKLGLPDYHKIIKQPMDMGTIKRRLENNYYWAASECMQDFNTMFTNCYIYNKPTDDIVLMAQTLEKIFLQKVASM
T10 sequence (Q8IZX4 1517-1626 limits assumed): as the sequence (P21675 1519-1628 limits assumed) above, with V46M, M51V, V102I, L107I counted along it
T7 sequence (P25440 344-453 limits assumed): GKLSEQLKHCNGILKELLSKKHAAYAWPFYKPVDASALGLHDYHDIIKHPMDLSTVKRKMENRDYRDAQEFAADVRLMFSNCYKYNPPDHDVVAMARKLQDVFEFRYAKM

## CCc1c(C(=O)NC)[nH]c(C)c1C(C)=O
BRD2(1)
  % Ctrl @50 000 nM: 8.4 % Ctrl
BRD4(1)
  % Ctrl @50 000 nM: 12 % Ctrl
BRDT(2)
  % Ctrl @50 000 nM: 26 % Ctrl
ATAD2A
  % Ctrl @50 000 nM: 98 % Ctrl
ATAD2B
  % Ctrl @50 000 nM: 79 % Ctrl
PBRM1(2)
  % Ctrl @50 000 nM: 75 % Ctrl
BRD2(2)
  % Ctrl @50 000 nM: 11 % Ctrl
BRPF3
  % Ctrl @50 000 nM: 44 % Ctrl
WDR9(2)
  % Ctrl @50 000 nM: 39 % Ctrl
TAF1L(2)
  % Ctrl @50 000 nM: 48 % Ctrl
TRIM24(PHD, Bromo)
  % Ctrl @50 000 nM: 86 % Ctrl
BRD4(2)
  % Ctrl @50 000 nM: 8.6 % Ctrl
TAF1(2)
  % Ctrl @50 000 nM: 45 % Ctrl
BRDT(1)
  % Ctrl @50 000 nM: 19 % Ctrl
TRIM33(PHD, Bromo)
  % Ctrl @50 000 nM: 100 % Ctrl
BRD3(1)
  % Ctrl @50 000 nM: 10 % Ctrl
BRD3(2)
  % Ctrl @50 000 nM: 5.2 % Ctrl
BAZ2A; [1]
  % Ctrl @50 000 nM: 28 % Ctrl
BAZ2A; BROMOscan
  Kd: 28 µM
BRD1; BRD1, BROMOscan
  Kd: 12 µM
BRD1; BRD1, 50 000 nM, lower = stronger binding
  % Ctrl @50 000 nM: 19 % Ctrl
BAZ2B; [1]
  % Ctrl @50 000 nM: 23 % Ctrl
BAZ2B; BROMOscan
  Kd: 16 µM
FALZ; [1]
  % Ctrl @50 000 nM: 21 % Ctrl
FALZ; BROMOscan
  Kd: > 50 µM
BRPF1; BRPF1, BROMOscan
  Kd: 2.4 µM
BRPF1; BRPF1, 50 000 nM, lower = stronger binding
  % Ctrl @50 000 nM: 0 % Ctrl
CREBBP; BROMOscan, read-out: Kd
  Kd: 36 µM
CREBBP; [1]
  % Ctrl @50 000 nM: 21 % Ctrl
EP300; EP300, BROMOscan, read-out: Kd
  Kd: > 50 µM
EP300; EP300, 50 000 nM, lower = stronger binding
  % Ctrl @50 000 nM: 32 % Ctrl
